Data: patent US8080553B2, “Methods and reagents for the treatment of immunoinflammatory disorders” (Zalicus Inc., priority 2003, dated 2011)
Values joined by “and” are separate entries in the source; they are usually repeats but may differ in a detail not shown here. Identical values can stand only once. Counter-ions that a name gives are not always drawn. Like-named read-outs stand apart in the source and are kept apart here.

Experiments:
[1] = test system: TNFα secretion in white blood cells from human buffy coat
Method: (§1) Drugs were added to the indicated concentration. […] The plate was then washed again with 0.1% Tween 20/PBS. An HRP-luminescent substrate was added to each well, and the light intensity of each well was measured using a plate luminometer.

[2] = test system: TNFα secretion in white blood cells from human buffy coat; assay: TNFα secretion assay, cells stimulated with phorbol 12-myristate 13-acetate and ionomycin (Tables 7-26); settings: for percent inhibition of TNFα secretion: dipyridamole 0 μM; for inhibition at 0.3 µM: read-out: percent inhibition of TNFα secretion, dipyridamole 0.3 μM; for inhibition at 19 µM: read-out: percent inhibition of TNFα secretion, dipyridamole 19 μM; for inhibition at 39 µM: read-out: percent inhibition of TNFα secretion, dipyridamole 39 μM
Method: as §1

[3] = Homo sapiens, Nortriptyl (μM): 0, 0.52, 1, 2.1, 4.2, 8.3, 17, 33, 67
[4] = Homo sapiens, Ro-20-1724 (μM) by grid row: r5 0, r6 0.28, r7 0.56, r8 1.1, r9 2.2, r10 4.5, r11 9, r12 18, r13 36
[5] = Homo sapiens, amoxapine (μM) by grid row: r5 0, r6 0.25, r7 0.5, r8 1, r9 2, r10 4, r11 8, r12 16, r13 32
[6] = Homo sapiens, fluoxetine (μM) by grid row: r5 0, r6 0.45, r7 0.9, r8 1.8, r9 3.6, r10 7.2, r11 14, r12 29, r13 58
[7] = Homo sapiens, paroxetine (μM): 0, 0.21, 0.42, 0.83, 1.7, 3.3, 6.7, 13, 27

SMILES: C[C@H]1C[C@H]2[C@@H]3CCC4=CC(=O)C=C[C@]4(C)[C@@]3(F)[C@@H](O)C[C@]2(C)[C@@]1(O)C(=O)CO [Betamethasone]
- inhibition [1]: 34.9% and 35.2%

SMILES: CCCC1O[C@@H]2C[C@H]3[C@@H]4CCC5=CC(=O)C=C[C@]5(C)[C@H]4[C@@H](O)C[C@]3(C)[C@]2(C(=O)CO)O1 (stereo partly shown) [Budesonide]
- inhibition at […] ([2]; Homo sapiens, read-out: percent inhibition of TNFα secretion, budesonide 35 nM, dipyridamole (μM as printed) by grid row: r5 0, r6 30, r7 121, r8 486, r9 1943, r10 7773): 36.3%

SMILES: CN1CCC(=C2c3ccccc3C=Cc3ccccc32)CC1 [Cyproheptadine HCl]
- percent inhibition of TNFα secretion ([2]; cyproheptadine HCl (μM) by grid row: r5 0, r6 0.24, r7 0.48, r8 0.96, r9 1.9, r10 3.9, r11 7.7, r12 15, r13 31): 29%

SMILES: OCCN(CCO)c1nc(N2CCCCC2)c2nc(N(CCO)CCO)nc(N3CCCCC3)c2n1 [Dipyridamole, 2,6-bis(diethanolamino)-4,8-dipiperidinopyrimido(5,4-d)pyrimidine]
- inhibition at 0.3 µM [2, 3]: 14%
- inhibition at 0.3 µM [2, 4]: -1.96%
- inhibition at 0.3 µM [2, 5]: 19%
- inhibition at 0.3 µM [2, 6]: 18%
- inhibition at 0.3 µM [2, 7]: 21%
- inhibition at 19 µM [2, 3]: 64%
- inhibition at 19 µM [2, 4]: 64%
- inhibition at 19 µM [2, 6]: 62%
- inhibition at 19 µM [2, 7]: 60%
- inhibition at 39 µM [2, 3]: 80%
- inhibition at 39 µM [2, 5]: 78%
- inhibition at 39 µM [2, 6]: 76%
- inhibition at 39 µM [2, 7]: 76%

SMILES: CC(C)C(=O)c1c(C(C)C)nn2ccccc12 [Ibudilast]
- inhibition at 0.5 µM ([2]; Homo sapiens, read-out: percent inhibition of TNFα secretion, ibudilast 0.5 μM, dipyridamole (μM): 0, 0.15, 0.3, 0.61, 1.2, 2.4, 4.9, 9.7, 19): 22.9%
- inhibition at 1 µM ([2]; Homo sapiens, read-out: percent inhibition of TNFα secretion, ibudilast 1 μM, dipyridamole (μM): 0, 0.15, 0.3, 0.61, 1.2, 2.4, 4.9, 9.7, 19): 37.4%
- inhibition at 2 µM ([2]; Homo sapiens, read-out: percent inhibition of TNFα secretion, ibudilast 2 μM, dipyridamole (μM): 0, 0.15, 0.3, 0.61, 1.2, 2.4, 4.9, 9.7, 19): 42.9%
- inhibition at 4 µM ([2]; Homo sapiens, read-out: percent inhibition of TNFα secretion, ibudilast 4 μM, dipyridamole (μM): 0, 0.15, 0.3, 0.61, 1.2, 2.4, 4.9, 9.7, 19): 45.9%
- inhibition at 8 µM ([2]; Homo sapiens, read-out: percent inhibition of TNFα secretion, ibudilast 8 μM, dipyridamole (μM): 0, 0.15, 0.3, 0.61, 1.2, 2.4, 4.9, 9.7, 19): 53.8%

SMILES: CCOC(=O)N1CCC(=C2c3ccc(Cl)cc3CCc3cccnc32)CC1 [Loratadine]
- percent inhibition of TNFα secretion ([2]; loratadine (μM) by grid row: r5 0, r6 0.2, r7 0.41, r8 0.82, r9 1.6, r10 3.3, r11 6.5, r12 13, r13 26): 31%

SMILES: C[C@]12C=CC(=O)C=C1CC[C@@H]1[C@@H]2[C@@H](O)C[C@@]2(C)[C@H]1CC[C@]2(O)C(=O)CO [Prednisolone]
- inhibition at 0.5 µM ([2]; Homo sapiens, read-out: percent inhibition of TNFα secretion, prednisolone 0.5 μM, dipyridamole (μM) by grid row: r5 0, r6 0.3, r7 0.61, r8 1.2, r9 2.4, r10 4.9, r11 9.7, r12 19, r13 39): 29.9%

SMILES: COc1ccc(C2CNC(=O)C2)cc1OC1CCCC1 (stereo not shown) [Rolipram, 4-[3-(cyclopentyloxy)-4-methoxyphenyl]-2-pyrrolidone]
- inhibition at 0.5 µM ([2]; Homo sapiens, read-out: percent inhibition of TNFα secretion, rolipram 0.5 μM, dipyridamole (μM): 0, 0.15, 0.3, 0.61, 1.2, 2.4, 4.9, 9.7, 19): 36.8%
- inhibition at 1 µM ([2]; Homo sapiens, read-out: percent inhibition of TNFα secretion, rolipram 1 μM, dipyridamole (μM): 0, 0.15, 0.3, 0.61, 1.2, 2.4, 4.9, 9.7, 19): 38.9%
